Measured values as given in US6562378B1, “Nutritional supplement for adolescents” (TSAR Health Private Ltd., priority 2002, dated 2003).
Marks after values point to notes of the source that are not given here.

Columns and labels:
Assay type in all cases: in vivo, human
[1] = test system: Antibody response; test: Zinc dose response: antibody response; details: adolescents
Experimental: (§1) The basic concept underlying the assessment of the most optimum nutrient amounts for a given age group uses the principle of “dose-response curves”. At least four groups of individuals were provided with various amounts of a given nutrient and their immune responses were measured using established and accepted techniques. The amount of a nutrient that gave the best response was considered the optimum amount. Dose response curves were determined for all vitamins and trace elements considered essential for human health, particularly immunity.
(§2) The ratio of radioactivity in the test samples divided by radioactivity in control samples gave the “stimulation response” shown in FIGS. 1 and 2.

[2] = test system: blood lymphocytes; test: Zinc dose response: lymphocyte response to PHA (thymidine uptake, stimulation index); details: 13-18 year old adolescents, median (standard deviation)
Experimental: as §1
Data for the dose response curve for zinc in a group of 13-18 year old adolescents is shown in FIGS. 1 and 2, with the total amount of zinc taken is shown for each group. To determine the magnitude of immune response, an aliquot of blood was withdrawn from each subject in the study, blood lymphocytes were separated, washed and mixed with the mitogen phytohemagglutinin (PHA) in previously determined optimum amount. The optimum amount of PHA used in the experiments was predetermined by a set of dose response curves using lymphocytes of a healthy donor and four different concentrations of PHA. After culture in a sterile environment for 72 hours, the cells were washed and mixed with radioactive thymidine. The same steps were undertaken in a control sample in which only the culture medium was used, not PHA. The cells were washed and radioactivity determined.
as §2

[3] = test system: Thymulin activity; test: Zinc dose response: thymulin activity; details: adolescents
Experimental: as §1, §2

[4] = test system: Interleukin-2; test: Zinc dose response: interleukin-2; details: adolescents, median (standard deviation)
Experimental: as §1, §2

[5] = supplemental zinc 11 mg/day plus 7 mg in diet
[6] = supplemental zinc 28 mg/day plus 7 mg in diet
[7] = supplemental zinc 55 mg/day plus 7 mg in diet

[Zn] [zinc]
Antibody response (median reciprocal titre) [1, 5]: 254 | Antibody response (median reciprocal titre) [1, 6]: 136 | Antibody response (median reciprocal titre) [1, 7]: 97 | Lymphocyte Response to PHA (stimulation index) [2, 5]: 77 (8) | Lymphocyte Response to PHA (stimulation index) [2, 6]: 51 (6) | Lymphocyte Response to PHA (stimulation index) [2, 7]: 40 (7) | Thymulin activity (median reciprocal titer) [3, 5]: 114* | Thymulin activity (median reciprocal titer) [3, 6]: 123* | Thymulin activity (median reciprocal titer) [3, 7]: 106* | Interleukin-2 [4, 5]: 17 (1.4) units/ml | Interleukin-2 [4, 6]: 11 (1.5) units/ml | Interleukin-2 [4, 7]: 9 (1.1) units/ml
